This assay concerns SDOV3 cells (an ovarian cancer cell line). As to the kind of experiment: Detection of ovarian cancer cells: uptake and intracellular deacylation, imaged by fluorescence microscopy. It is filed as cell-based. The settings on record: 50 micromolar, folate-free medium (no FBS), washed with HBSS, 20× immersion objective. As to the method: Compound 24 and comparative compound A were evaluated for their ability to be absorbed by cancer cells and then, in the case of compound 24, deacylated by intracellular esterases so as to regenerate a fluorescent structure. Specifically, approximately 500,000 SDOV3 cells (an ovarian cancer cell line) were seeded into separate 35 mm culture dishes containing a folate-free growth medium (RPMI+10% FBS). The next day, the medium was replaced with a folate-free medium (no FBS). In one culture dish, the medium was supplemented with 25 micromolar of compound 24; and, in another culture dish, the medium was supplemented with 50 micromolar of comparative compound A. After incubation, the cells were washed with HBSS (Hank's balanced salt solution) to remove unbound compound. The cells were then imaged with a 20× immersion objective on a standard upright fluorescent microscope. […] FIG. 1 illustrates a picture showing the fluorescence generated. Note that only the cancer cells evidenced fluorescence and that the solution remained non-fluorescent. […] This evidences that that composition was not suitable for use in the methods described herein.

Regarding `Nc1nc2ncc(CNc3ccc(C(=O)NC(CCC(=O)NCCCCCNC(=O)c4cccc(-c5c6ccc(=O)cc-6oc6cc(O)ccc56)c4C(=O)O)C(=O)O)cc3)nc2c(=O)[nH]1` (stereo not shown) [comparative compound A], the “fluorescent signal of the cells” value was “burst of fluorescence but immediately the fluorescence was bleached”.

The values are drawn from US20190227066A1, “COMPOSITIONS AND METHODS FOR DETECTING CANCER CELLS IN A TISSUE SAMPLE” (ISI Life Sciences, Inc., priority 2016, published 2019).
